Assay results reported in patent EP2228050A1, “Use of gamma-aminobutyric acid as a depigmenting agent” (priority 2009, dated 2010).
“And” between values parts separate entries of the source, which are not always exact repeats. Identical values can stand only once. Like-named read-outs stand apart in the source and are kept apart here.

Key:
[1] = test system: mélanocytes humains normaux; test: Cytotoxicity: viability of melanocytes by spectrophotometric assay of intracellular phosphatase activity (p-nitrophenyl phosphate, 405 nm)
Description: On effectue la détermination sur des mélanocytes humains normaux obtenus à partir d'un sujet jeune (4 ans). Pour les réalisations des essais, les cellules ont été cultivées jusqu'à l'obtention de mono couches confluentes.
Les cellules ont mises en incubation pendant 72 heures en l'absence (essai témoin) ou en présence de concentrations croissantes de composé E ou de chacun des produits essayés. Pour le composé E, on a essayé des concentrations de 0.003; 0.03; 0.075; 0.15; 0.5; 0.75; 1.5 et 3% (v/v) et pour le produit selon l'invention : 0.01; 0.1; 0.25; 0.5; 1; 2.5; 5; 10% (v/v).
A titre de comparaison, on a préparé une solution à 10% d'acide kojique et une solution d'acide lactique à 30% (composition E).
Les préparations essayées ont été ensuite diluées directement dans le milieu d'incubation des mélanocytes.
A la fin de la période d'incubation, la viabilité des cellules a été évaluée par une méthode spectrophotométrique de dosage de l'activité des phosphatases intracellulaires.
Selon la méthode de Yan T. et al. (Anal. Biochem. 24 (1996) 103-108), on dose le p-nitrophénol résultant de la transformation du phosphate de p-nitrophényle par les phosphatases intra-cellulaires des cellules viables.
L'absorbance du p-nitrophénol libéré à 405 nm est directement proportionnelle au nombre des cellules viables présentes dans le puits de culture.

[2] = test system: mélanocytes humains normaux; test: Melano-modulating effect: intracellular melanin / protein ratio in monolayer melanocytes (step 1 single actives, step 2 complex); assay type: cell-based; conditions: 72 h
Description: Ces essais ont été menés sur un modèle de mélanocytes humains normaux cultivés en mono couche.
Les mélanocytes humains normaux ont été mis en incubation pendant 72 heures en l'absence (témoin) ou en présence d'un produit de référence (acide kojique 250 µM)) ou de concentrations croissantes des produits actifs essayés.
Dans cette méthode, on dose le rapport mélanine/protéines en pourcentage du témoin. On a déterminé également les valeurs obtenues avec le solvant seul et une solution d'acide kojique à 250 µM dans ce solvant(DMSO) pris comme substance de référence.
Tableau II Véhicule (DMSO) et produit de référence
On a utilisé des mélanocytes humains normaux issus d'un sujet jeune âgé de 4 ans. On les a cultivé en monocouche jusqu'à confluence de 80%.
On a employé comme inhibiteur de tyrosinase de référence, l'acide kojique à 250 µM.
Les mélanocytes ont été mis en incubation pendant 72 heures à 37°C sous atmosphère humide et sous 5% de CO2 en l'absence (témoin) ou en présence d'acide kojique ou de concentrations croissantes de principes actifs à l'essai (0.1; 0.5 1%)
A la fin de la période d'incubation, le contenu intracellulaire en mélanine a été quantifié après lyse cellulaire par mesure spectrophotométrique à 405nm.
A la fin de la période d'incubation, les protéines contenues dans les lysats cellulaires ont été dosés par une méthode spectrocolorimétrique faisant appel au bleu de Coomassie (selon la méthode de Bradford M. Anal. Biochem. 72 (1976) 248-254).
Les résultats sont donnés sous forme de pourcentage de mélanine par rapport aux témoins (moyenne + ou- déviation standard SD) calculés à partir de valeurs obtenues en µg de mélanine intracellulaire par mg de protéines totales du tapis cellulaire.
On a déterminé la significativité statistique des différences constatées entre les conditions des « témoin » et « Produits à l'essai » selon une analyse de variance à un seul facteur (ANOVA) suivi d'un test de Holm-Sidak (* = […] < 0,05)

## NCCCC(=O)O [A, acide gamma-aminobutyrique]
[1]; human, 4320 min
  dose à partir de laquelle un effet cytotoxique est détectable: 0.5%

## O=c1cc(CO)occ1O [Acide Kojique, acide kojique]
[2]; Melanocyte, step 1, Acide Kojique 250 µM in DMSO, mean, * p<0,05, read-out: mélanine / protéines (% du témoin) Moyenne
  activity at 250 µM: 77.4%
[2]; Melanocyte, step 2, Acide kojique 250 µM, mean (controls mean 119,2), * p<0,05, read-out: Mélanines/ protéines (% du témoin) Moyenne
  activity at 250 µM: 101%
[2]; Melanocyte, step 2, Acide kojique 250 µM, mean normalised to controls = 100, read-out: % témoin
  activity at 250 µM: 84.5%
[2]; Melanocyte, step 2, Acide kojique 250 µM, single replicate (controls mean 119,2), read-out: Mélanines/ protéines (% du témoin)
  activity at 250 µM: 106%
[2]; Melanocyte, step 2, acide kojique 250 µM, p < 0.05, read-out: réduction du contenu intracellulaire en mélanine
  inhibition at 250 µM: 15.5%
[2]; step 2, Acide kojique 250 µM, single replicate (controls mean 119,2), 4320 min, 250 µM
  Mélanines/ protéines (% du témoin): 93,2 % du témoin and 102,8 % du témoin and 94,1 % du témoin and 97,9 % du témoin

## CC(O)C(=O)O (centres unmarked) [Actif E, acide lactique]
[1]; 72 h, detectable = less than 80 % viable cells
  dose à partir de laquelle un effet cytotoxique est détectable: 0.03%
